Results on 13 molecules are retold here after patent publication US8871753B2, “Macrocyclic compounds and their use as kinase inhibitors” (Incyte Corporation, priority 2008, dated 2014).

Assay type in all cases: biochemical
Assay [1] deals with TYK2 (Homo sapiens, UniProt P29597). The experiment in a line: TYK2 kinase inhibition (Table A1).
Assay [2] has as its target T1, human JAK2 (a.a. 828-1132) (Homo sapiens, UniProt O60674).
T1 construct: JAK2 (a.a. 828-1132); His tag (N); made in house; host or cells: insect cells (baculovirus)
Briefly: In vitro JAK kinase assay (HTRF, phosphorylation of a biotinylated peptide), JAK2. Conditions: method AA1 (30 μM ATP) or AA2 (1000 μM ATP), not stated per value. The method in brief: (§1)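 Kinase activity was measured as phosphorylation of a biotinylated peptide, with ATP at 90 μM for JAK1, 30 μM for JAK2 and 3 μM for JAK3. Reactions ran 1 hr at room temperature, were stopped with EDTA plus SA-APC and Eu-Py20, and were read by HTRF after 40 minutes of antibody binding.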

Assay [3] deals with T2, Recombinant Human Anaplastic Lymphoma Kinase (Homo sapiens, UniProt Q9UM73).
T2 construct: purchased Invitrogen, Carlsbad, Calif
Briefly: ALK HTRF kinase assay. The conditions noted are these: compound at 500 nM or 1 mM; 90 μM ATP. An outline of the steps:
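Biotinylated peptide substrate, recombinant human ALK; detection via europium-chelate antibody to phosphotyrosine paired with streptavidin-APC. Potency expressed as IC50 from four-parameter curve fitting.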
A general note: TR-FRET usually uses a lanthanide donor and a delayed reading to cut background.

The target of assay [4] is T3, human JAK1 (a.a. 837-1142) (Homo sapiens, UniProt P23458).
T3 construct: human JAK1 (a.a. 837-1142); His tag (N); made in house; host or cells: insect cells (baculovirus)
The experiment in a line: In vitro JAK kinase assay (HTRF, phosphorylation of a biotinylated peptide), JAK1. Conditions: method AA1 (90 μM ATP) or AA2 (1000 μM ATP), not stated per value; read-out: JAK1 IC50. An outline of the steps:
as §1

In assay [5] the target is T4, human JAK3 (a.a. 781-1124) (Homo sapiens, UniProt P52333).
T4 construct: JAK3 (a.a. 781-1124); His tag (N); made in house; host or cells: insect cells (baculovirus)
The experiment in a line: In vitro JAK kinase assay (HTRF, phosphorylation of a biotinylated peptide), JAK3. Conditions: method AA1 (3 μM ATP) or AA2 (1000 μM ATP), not stated per value. The method in brief: as §1

T2 sequence (Q9UM73 19-1620): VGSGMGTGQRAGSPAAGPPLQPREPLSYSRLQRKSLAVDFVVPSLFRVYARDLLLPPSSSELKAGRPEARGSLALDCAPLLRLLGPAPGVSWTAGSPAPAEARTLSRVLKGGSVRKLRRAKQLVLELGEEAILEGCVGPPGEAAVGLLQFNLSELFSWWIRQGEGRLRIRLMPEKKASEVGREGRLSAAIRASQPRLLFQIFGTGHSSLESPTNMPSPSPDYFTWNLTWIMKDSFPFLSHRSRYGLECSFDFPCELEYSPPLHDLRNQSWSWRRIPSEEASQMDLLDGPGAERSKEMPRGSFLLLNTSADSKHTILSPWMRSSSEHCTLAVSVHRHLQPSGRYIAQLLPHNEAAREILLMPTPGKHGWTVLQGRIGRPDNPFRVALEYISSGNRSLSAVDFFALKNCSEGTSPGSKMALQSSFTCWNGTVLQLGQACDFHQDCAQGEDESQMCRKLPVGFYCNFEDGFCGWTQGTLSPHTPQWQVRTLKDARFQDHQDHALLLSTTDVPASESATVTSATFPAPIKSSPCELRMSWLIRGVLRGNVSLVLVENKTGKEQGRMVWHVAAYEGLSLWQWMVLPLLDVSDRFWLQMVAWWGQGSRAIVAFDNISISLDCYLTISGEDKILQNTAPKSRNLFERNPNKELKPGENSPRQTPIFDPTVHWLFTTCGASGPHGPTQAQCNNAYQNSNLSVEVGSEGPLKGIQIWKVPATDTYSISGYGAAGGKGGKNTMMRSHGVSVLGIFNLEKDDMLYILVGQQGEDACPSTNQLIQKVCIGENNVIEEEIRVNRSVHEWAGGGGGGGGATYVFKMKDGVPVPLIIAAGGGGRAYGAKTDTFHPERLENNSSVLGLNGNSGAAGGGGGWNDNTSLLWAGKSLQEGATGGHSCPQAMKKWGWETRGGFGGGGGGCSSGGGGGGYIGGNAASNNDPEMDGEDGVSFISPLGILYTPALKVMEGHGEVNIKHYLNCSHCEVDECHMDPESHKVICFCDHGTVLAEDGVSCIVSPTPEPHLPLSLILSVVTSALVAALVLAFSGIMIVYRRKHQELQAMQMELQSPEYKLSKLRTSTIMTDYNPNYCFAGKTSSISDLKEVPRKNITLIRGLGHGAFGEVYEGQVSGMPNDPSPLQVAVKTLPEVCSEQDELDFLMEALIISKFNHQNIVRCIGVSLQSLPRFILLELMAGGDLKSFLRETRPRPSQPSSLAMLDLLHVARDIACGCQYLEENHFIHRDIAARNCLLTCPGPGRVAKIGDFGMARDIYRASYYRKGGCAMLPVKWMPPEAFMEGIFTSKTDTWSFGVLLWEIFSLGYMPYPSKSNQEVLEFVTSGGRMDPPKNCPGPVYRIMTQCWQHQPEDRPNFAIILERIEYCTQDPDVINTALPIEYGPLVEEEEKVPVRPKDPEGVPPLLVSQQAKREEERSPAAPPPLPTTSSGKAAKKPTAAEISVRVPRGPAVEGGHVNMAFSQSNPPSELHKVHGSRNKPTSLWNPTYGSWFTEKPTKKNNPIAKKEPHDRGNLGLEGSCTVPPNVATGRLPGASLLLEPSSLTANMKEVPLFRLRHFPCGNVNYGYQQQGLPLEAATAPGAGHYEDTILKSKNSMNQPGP
T3 sequence (P23458 849-1154): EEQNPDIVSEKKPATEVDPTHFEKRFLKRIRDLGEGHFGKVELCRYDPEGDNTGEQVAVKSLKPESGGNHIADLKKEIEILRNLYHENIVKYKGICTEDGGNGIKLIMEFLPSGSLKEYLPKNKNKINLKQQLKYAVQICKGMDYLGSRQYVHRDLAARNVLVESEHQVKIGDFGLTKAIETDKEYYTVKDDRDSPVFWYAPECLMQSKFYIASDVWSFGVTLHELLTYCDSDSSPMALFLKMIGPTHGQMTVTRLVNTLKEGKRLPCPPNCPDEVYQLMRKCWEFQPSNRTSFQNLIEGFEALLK
T1 sequence (O60674 828-1132): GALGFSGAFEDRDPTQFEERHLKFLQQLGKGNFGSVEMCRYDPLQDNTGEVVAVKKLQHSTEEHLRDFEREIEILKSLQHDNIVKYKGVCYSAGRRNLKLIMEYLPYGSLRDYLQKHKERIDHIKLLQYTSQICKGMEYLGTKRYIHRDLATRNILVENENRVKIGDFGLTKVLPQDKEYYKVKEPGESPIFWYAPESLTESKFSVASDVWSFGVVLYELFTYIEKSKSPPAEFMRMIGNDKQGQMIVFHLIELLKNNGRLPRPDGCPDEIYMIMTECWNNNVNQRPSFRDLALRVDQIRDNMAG
TYK2, sequence (P29597 whole entry): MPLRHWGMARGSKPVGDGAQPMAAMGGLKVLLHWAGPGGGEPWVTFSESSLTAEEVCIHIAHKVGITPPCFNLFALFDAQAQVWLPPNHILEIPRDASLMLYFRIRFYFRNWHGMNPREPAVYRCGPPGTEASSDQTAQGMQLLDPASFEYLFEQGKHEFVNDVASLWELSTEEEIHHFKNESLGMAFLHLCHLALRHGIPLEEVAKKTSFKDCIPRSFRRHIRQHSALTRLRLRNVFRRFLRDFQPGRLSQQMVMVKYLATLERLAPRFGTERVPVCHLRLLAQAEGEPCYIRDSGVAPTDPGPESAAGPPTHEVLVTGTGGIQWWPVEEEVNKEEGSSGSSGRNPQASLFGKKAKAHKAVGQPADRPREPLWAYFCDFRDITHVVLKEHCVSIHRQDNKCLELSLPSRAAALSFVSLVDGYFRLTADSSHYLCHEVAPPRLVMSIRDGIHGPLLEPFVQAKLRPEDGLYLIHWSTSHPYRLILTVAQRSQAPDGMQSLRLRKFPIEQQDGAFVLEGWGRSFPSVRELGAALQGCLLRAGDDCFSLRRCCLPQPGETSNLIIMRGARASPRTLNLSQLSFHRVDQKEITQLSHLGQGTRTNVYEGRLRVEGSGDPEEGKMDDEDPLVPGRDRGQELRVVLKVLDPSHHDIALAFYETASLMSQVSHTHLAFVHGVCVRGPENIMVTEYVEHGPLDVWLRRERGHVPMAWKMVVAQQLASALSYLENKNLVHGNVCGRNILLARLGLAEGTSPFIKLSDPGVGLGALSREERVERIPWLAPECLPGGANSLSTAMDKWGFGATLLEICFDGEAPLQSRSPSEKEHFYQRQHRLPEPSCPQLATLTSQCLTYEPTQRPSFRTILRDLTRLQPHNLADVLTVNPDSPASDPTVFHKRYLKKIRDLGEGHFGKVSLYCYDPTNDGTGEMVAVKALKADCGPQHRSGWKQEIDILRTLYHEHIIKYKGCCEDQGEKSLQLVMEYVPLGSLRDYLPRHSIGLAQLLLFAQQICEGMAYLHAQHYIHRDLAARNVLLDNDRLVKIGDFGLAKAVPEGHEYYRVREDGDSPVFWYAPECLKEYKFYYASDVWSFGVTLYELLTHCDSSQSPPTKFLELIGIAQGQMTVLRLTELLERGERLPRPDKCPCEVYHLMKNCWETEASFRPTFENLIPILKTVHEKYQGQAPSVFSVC
T4 sequence (P52333 781-1124): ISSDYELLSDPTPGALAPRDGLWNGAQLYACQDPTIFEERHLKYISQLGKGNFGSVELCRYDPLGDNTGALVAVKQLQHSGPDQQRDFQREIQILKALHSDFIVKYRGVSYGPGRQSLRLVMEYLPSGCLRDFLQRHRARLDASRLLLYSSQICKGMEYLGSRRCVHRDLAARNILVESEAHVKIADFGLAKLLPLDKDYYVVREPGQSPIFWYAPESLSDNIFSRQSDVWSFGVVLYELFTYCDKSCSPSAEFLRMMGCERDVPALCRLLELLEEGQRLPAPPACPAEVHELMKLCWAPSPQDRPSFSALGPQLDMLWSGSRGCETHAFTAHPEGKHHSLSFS

As for `COc1cc(C(=O)N2CCC(CC(=O)Nc3ccc4cc3CCc3cncc(c3)Nc3ncc(Cl)c(n3)N4)CC2)on1` [Example A215, N-[6-Chloro-2,4,8,18,22-pentaazatetracyclo[14.3.1.1(3,7).1(9,13)]docosa-1(20),3(22),4,6,9(21),10,12,16,18-nonaen-12-yl]-2-{1-[(3-methoxyisoxazol-5-yl)carbonyl]piperidin-4-yl}acetamide bis(trifluoroacetate)], the IC50 is 0.16 µM in assay [1], 0.185 µM in assay [2], 0.016 µM in assay [4] and greater than 0.2 µM in assay [5]. For the same molecule, the “ALK % of inhibition at a concentration of 500 nM or 1 mM” value (“ALK % of inhibition” for short) in assay [3] is given as 32%.

As to `Cc1ncsc1C(=O)N1CCC(CC(=O)Nc2ccc3cc2CCc2cncc(c2)Nc2ncc(Cl)c(n2)N3)CC1` [Example A216, N-[6-Chloro-2,4,8,18,22-pentaazatetracyclo[14.3.1.1(3,7).1(9,13)]docosa-1(20),3(22),4,6,9(21),10,12,16,18-nonaen-12-yl]-2-{1-[(4-methyl-1,3-thiazol-5-yl)carbonyl]piperidin-4-yl}acetamide bis(trifluoroacetate)], the IC50 was greater than 0.2 µM in assay [1], greater than 0.2 µM in assay [2], 0.08 µM in assay [4] and greater than 0.2 µM in assay [5]. Also, the “ALK % of inhibition” value in assay [3] came out at 29%.

Regarding `Nc1nc(C(=O)N2CCC(CC(=O)Nc3ccc4cc3CCc3cncc(c3)Nc3ncc(Cl)c(n3)N4)CC2)cs1` [Example A217, 2-{1-[(2-Amino-1,3-thiazol-4-yl)carbonyl]piperidin-4-yl}-N-[6-chloro-2,4,8,18,22-pentaazatetracyclo[14.3.1.1(3,7).1(9,13)]docosa-1(20),3(22),4,6,9(21),10,12,16,18-nonaen-12-yl]acetamide tris(trifluoroacetate)], the IC50 is 0.055 µM in assay [1], 0.068 µM in assay [2], 0.0042 µM in assay [4] and greater than 0.2 µM in assay [5]. Further, the “ALK % of inhibition” value in assay [3] was 23%.

Take `CC(C)c1oncc1C(=O)N1CCC(CC(=O)Nc2ccc3cc2CCc2cncc(c2)Nc2ncc(Cl)c(n2)N3)CC1` [Example A218, N-[6-Chloro-2,4,8,18,22-pentaazatetracyclo[14.3.1.1(3,7).1(9,13)]docosa-1(20),3(22),4,6,9(21),10,12,16,18-nonaen-12-yl]-2-{1-[(5-isopropylisoxazol-4-yl)carbonyl]piperidin-4-yl}acetamide bis(trifluoroacetate)]: the IC50 in assay [1] was greater than 0.2 µM; in assay [2] it was greater than 0.2 µM; in assay [4] it was 0.074 µM; in assay [5], greater than 0.2 µM. For the same molecule, the “ALK % of inhibition” value in assay [3] came out at 26%.

As to `O=C(CC1CCN(c2ccccc2)CC1)Nc1ccc2cc1CCc1cncc(c1)Nc1ncc(Cl)c(n1)N2` [Example A219, N-[6-Chloro-2,4,8,18,22-pentaazatetracyclo[14.3.1.1(3,7).1(9,13)]docosa-1(20),3(22),4,6,9(21),10,12,16,18-nonaen-12-yl]-2-(1-phenylpiperidin-4-yl)acetamide tris(trifluoroacetate)], the half-inhibitory concentration (IC50) in assay [1] is 0.18 µM; in assay [2], 0.09 µM; in assay [4], 0.012 µM; in assay [5] it was greater than 0.2 µM. Also, in assay [3], the “ALK % of inhibition” value was 20%.

As to `N#Cc1ccccc1N1CCC(CC(=O)Nc2ccc3cc2CCc2cncc(c2)Nc2ncc(Cl)c(n2)N3)CC1` [Example A220, N-[6-Chloro-2,4,8,18,22-pentaazatetracyclo[14.3.1.1(3,7).1(9,13)]docosa-1(20),3(22),4,6,9(21),10,12,16,18-nonaen-12-yl]-2-[1-(2-cyanophenyl)piperidin-4-yl]acetamide tris(trifluoroacetate)], the IC50 is 0.19 µM in assay [1], 0.18 µM in assay [2], 0.013 µM in assay [4] and greater than 0.2 µM in assay [5]. The “ALK % of inhibition” value in assay [3] worked out at 18%.

On to `N#Cc1ccc(N2CCC(CC(=O)Nc3ccc4cc3CCc3cncc(c3)Nc3ncc(Cl)c(n3)N4)CC2)cc1` [Example A221, N-[6-Chloro-2,4,8,18,22-pentaazatetracyclo[14.3.1.1(3,7).1(9,13)]docosa-1(20),3(22),4,6,9(21),10,12,16,18-nonaen-12-yl]-2-[1-(4-cyanophenyl)piperidin-4-yl]acetamide tris(trifluoroacetate)], for which the IC50 in assay [1] was greater than 0.2 µM; in assay [2] it was greater than 0.2 µM; in assay [4] it was 0.044 µM; in assay [5], greater than 0.2 µM. The “ALK % of inhibition” value in assay [3] is on record as 22%.

For the molecule `N#Cc1c(Cl)cccc1N1CCC(CC(=O)Nc2ccc3cc2CCc2cncc(c2)Nc2ncc(Cl)c(n2)N3)CC1` [Example A222, 2-[1-(3-Chloro-2-cyanophenyl)piperidin-4-yl]-N-[6-chloro-2,4,8,18,22-pentaazatetracyclo[14.3.1.1(3,7).1(9,13)]docosa-1(20),3(22),4,6,9(21),10,12,16,18-nonaen-12-yl]acetamide tris(trifluoroacetate)], the IC50 in assay [1] is greater than 0.2 µM; in assay [2], greater than 0.2 µM; in assay [4] it was 0.0032 µM; in assay [5], greater than 0.2 µM. In assay [3], the “ALK % of inhibition” value came to 5.6%.

Regarding `O=C(CC1CCN(S(=O)(=O)c2ccccc2Cl)CC1)Nc1ccc2cc1CCc1cncc(c1)Nc1ncc(Cl)c(n1)N2` [Example A223, N-[6-Chloro-2,4,8,18,22-pentaazatetracyclo[14.3.1.1(3,7).1(9,13)]docosa-1(20),3(22),4,6,9(21),10,12,16,18-nonaen-12-yl]-2-{1-[(2-chlorophenyl)sulfonyl]piperidin-4-yl}acetamide bis(trifluoroacetate)], the IC50 was greater than 0.4 µM in assay [1], 0.09 µM in assay [2], 0.005 µM in assay [4] and greater than 0.4 µM in assay [5]. The “ALK % of inhibition” value in assay [3] stood at 41%.

On to `O=C(CC1CCN(S(=O)(=O)c2ccccc2C(F)(F)F)CC1)Nc1ccc2cc1CCc1cncc(c1)Nc1ncc(Cl)c(n1)N2` [Example A224, N-[6-Chloro-2,4,8,18,22-pentaazatetracyclo[14.3.1.1(3,7).1(9,13)]docosa-1(20),3(22),4,6,9(21),10,12,16,18-nonaen-12-yl]-2-(1-{[2-(trifluoromethyl)phenyl]sulfonyl}piperidin-4-yl)acetamide bis(trifluoroacetate)], for which the IC50 in assay [1] is greater than 0.4 µM; in assay [2], greater than 0.4 µM; in assay [4] it was 0.014 µM; in assay [5], greater than 0.4 µM. The “ALK % of inhibition” value in assay [3] is reported as 30%.

With `Cc1ccccc1S(=O)(=O)N1CCC(CC(=O)Nc2ccc3cc2CCc2cncc(c2)Nc2ncc(Cl)c(n2)N3)CC1` [Example A225, N-[6-Chloro-2,4,8,18,22-pentaazatetracyclo[14.3.1.1(3,7).1(9,13)]docosa-1(20),3(22),4,6,9(21),10,12,16,18-nonaen-12-yl]-2-{1-[(2-methylphenyl)sulfonyl]piperidin-4-yl}acetamide bis(trifluoroacetate)], the IC50 is greater than 0.4 µM in assay [1], 0.18 µM in assay [2], 0.0072 µM in assay [4] and greater than 0.4 µM in assay [5]. For the same molecule, the “ALK % of inhibition” value in assay [3] is on record as 36%.

`O=C(CC1CCN(S(=O)(=O)c2ccccc2F)CC1)Nc1ccc2cc1CCc1cncc(c1)Nc1ncc(Cl)c(n1)N2` [Example A226, N-[6-Chloro-2,4,8,18,22-pentaazatetracyclo[14.3.1.1(3,7).1(9,13)]docosa-1(20),3(22),4,6,9(21),10,12,16,18-nonaen-12-yl]-2-{1-[(2-fluorophenyl)sulfonyl]piperidin-4-yl}acetamide bis(trifluoroacetate)]: the IC50 in assay [1] is greater than 0.4 µM; in assay [2] it was 0.1 µM; in assay [4], 0.0053 µM; in assay [5], greater than 0.4 µM. Moreover, the “ALK % of inhibition” value in assay [3] stood at 55%.

`O=C(CC1CCN(S(=O)(=O)c2ccccc2OC(F)(F)F)CC1)Nc1ccc2cc1CCc1cncc(c1)Nc1ncc(Cl)c(n1)N2` [Example A227, N-[6-Chloro-2,4,8,18,22-pentaazatetracyclo[14.3.1.1(3,7).1(9,13)]docosa-1(20),3(22),4,6,9(21),10,12,16,18-nonaen-12-yl]-2-(1-{[2-(trifluoromethoxy)phenyl]sulfonyl}piperidin-4-yl)acetamide bis(trifluoroacetate)]: the IC50 in assay [1] is greater than 0.4 µM; in assay [2], greater than 0.4 µM; in assay [4] it was 0.01 µM; in assay [5], greater than 0.4 µM. Also, the “ALK % of inhibition” value in assay [3] is recorded as 22%.

As usually defined, the IC50 is the midpoint of a concentration-inhibition curve.
